Patent US20170291905A1, “ARGININE […] INHIBITORS AND USES THEREOF” (Epizyme, Inc., priority 2014, published 2017)
Counter-ions that a name gives are not always drawn.

Molecular target: full-length human PRMT6 (Flag- and His-tagged) (Homo sapiens, UniProt Q96LA8)
Experiment: PRMT6 biochemical assay (3H-SAM Flashplate, histone H4 36-50 K44me1 peptide)
Conditions: 1 nM PRMT6, 30 min preincubation, 75 nM peptide
Source text: S-adenosylmethionine (SAM), S-adenosylhomocysteine (SAH), bicine, Tween20, dimethylsulfoxide (DMSO), bovine skin gelatin (BSG), sodium butyrate and Tris(2-carboxyethyl)phosphine hydrochloride solution (TCEP) were purchased from Sigma-Aldrich at the highest level of purity possible. ^3H-SAM was purchase from American Radiolabeled Chemicals with a specific activity of 80 Ci/mmol. 384-well streptavidin Flashplates were purchased from PerkinElmer.
Peptide representative of human histone H4 residues 36-50 was synthesized with an N-terminal linker-affinity tag motif and a C-terminal amide cap by 21st Century Biochemicals. The peptide was purified by high-performance liquid chromatography (HPLC) to greater than 95% purity and confirmed by liquid chromatography mass spectrometry (LC-MS). The sequence was Biot-Ahx-[…]-amide and contained a monomethylated lysine at position 44 (SEQ ID NO.:5).
Full-length human PRMT6 (NM_018137.2) transcript clone was amplified from an HEK 293 cDNA library, incorporating a flanking 5′ sequence encoding a FLAG tag ([…]) (SEQ ID NO.:6) fused directly to Ser 2 of PRMT6 and a 3′ sequence encoding a hexa His sequence (HHHHHH) (SEQ ID NO.: 17) fused directly to Asp 375. The amplified gene was subcloned into pFastBacMam (Viva Biotech).
Recombinant baculovirus were generated according to Bac-to-Bac kit instructions (Life Technologies). […] Infections were carried out at 37° C. for 48 hours, harvested by centrifugation, and stored at −80° C. for purification.
Column was washed with 20 mM imidazole in the same buffer and Flag-PRMT6-His was eluted with 150 mM imidazole. Pooled fractions were dialysed against buffer Ni-A and further purified by anti-flag M2 affinity chromatography. Flag-PRMT6-His was eluted with 200 ug/ml FLAG peptide in the same buffer. Pooled fractions were dialysed in 20 mM Tris, 150 mM NaCl, 10% glycerol and 5 mM β-mercaptoethanol, pH 7.8. The purity of recovered protein was 95%.
General Procedure for PRMT6 Enzyme Assays on Peptide Substrates.
The assays were all performed in a buffer consisting of 20 mM Bicine (pH=7.6), 1 mM TCEP, 0.005% BSG, and 0.002% Tween 20, prepared on the day of use. Compounds in 100% DMSO (1 ul) were spotted into a polypropylene 384-well V-bottom plates (Greiner) using a Platemate Plus outfitted with a 384-channel head (Thermo Scientific). DMSO (1 ul) was added to Columns 11, 12, 23, 24, rows A-H for the maximum signal control and 1 ul of SAH, a known product and inhibitor of PRMT6, was added to columns 11, 12, 23, 24, rows I-P for the minimum signal control. A cocktail (40 ul) containing the PRMT6 enzyme was added by Multidrop Combi (Thermo-Fisher). The compounds were allowed to incubate with PRMT6 for 30 min at room temperature, then a cocktail (10 ul) containing SAM and peptide was added to initiate the reaction (final volume=51 ul). The final concentrations of the components were as follows: PRMT6 was 1 nM, ^3H-SAM was 200 nM, non-radiolabeled SAM was 250 nM, peptide was 75 nM, SAH in the minimum signal control wells was 1 mM, and the DMSO concentration was 2%. The assays were stopped by the addition of non-radiolabeled SAM (10 ul) to a final concentration of 400 uM, which dilutes the ^3H-SAM to a level where its incorporation into the peptide substrate is no longer detectable. 50 ul of the reaction in the 384-well polypropylene plate was then transferred to a 384-well Flashplate and the biotinylated peptides were allowed to bind to the streptavidin surface for at least 1 hour before being washed once with 0.1% Tween20 in a Biotek ELx405 plate washer. The plates were then read in a PerkinElmer TopCount plate reader to measure the quantity of ^3H-labeled peptide bound to the Flashplate surface, measured as disintegrations per minute (dpm) or alternatively, referred to as counts per minute (cpm).
Where dpm=disintegrations per minute, cmpd=signal in assay well, and min and max are the respective minimum and maximum signal controls. […]

Sequence of full-length human PRMT6 (Flag- and His-tagged) (Q96LA8 with tags, fused parts or gaps): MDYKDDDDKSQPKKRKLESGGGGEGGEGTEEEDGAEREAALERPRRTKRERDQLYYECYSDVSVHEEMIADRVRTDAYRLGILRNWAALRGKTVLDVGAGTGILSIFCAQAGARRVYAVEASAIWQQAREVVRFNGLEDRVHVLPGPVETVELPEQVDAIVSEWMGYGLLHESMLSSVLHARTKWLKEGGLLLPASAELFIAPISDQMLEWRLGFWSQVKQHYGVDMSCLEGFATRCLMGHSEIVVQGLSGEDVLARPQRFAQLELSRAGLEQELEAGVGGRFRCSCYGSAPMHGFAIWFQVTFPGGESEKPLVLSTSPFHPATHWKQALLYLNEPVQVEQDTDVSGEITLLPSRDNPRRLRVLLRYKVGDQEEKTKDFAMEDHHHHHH

| IC50 [nM] | SMILES |
| --- | --- |
| 2790 | CNCCN(C)Cc1cncn1[C@H]1CC[C@]2(CC1)CC(C)(C)CO2 [compound 98] |
| 21.6 | CNCCN(C)Cc1c[nH]nc1[C@H]1CC[C@H](COCC(F)(F)F)CC1 [compound 24, N1,N2-dimethyl-N1-((3-((1r,4r)-4-((2,2,2-trifluoroethoxy)methyl)cyclohexyl)-1H-pyrazol-4-yl)methyl)ethane-1,2-diamine] |
| 502 | CNCCN(C)Cc1ccnn1[C@H]1CC[C@]2(CC1)CC(C)(C)CO2 [compound 50, N1-((1-((5r,8r)-3,3-dimethyl-1-oxaspiro[4.5]decan-8-yl)-1H-pyrazol-5-yl)methyl)-N1,N2-dimethylethane-1,2-diamine] |
| 16.3 | CNCCN(C)Cc1c[nH]nc1C1CCC(C)(C)[C@H](CO)C1 (stereo partly drawn) [compound 32, [(1R)-2,2-dimethyl-5-[4-({methyl[2-(methylamino)ethyl]amino}methyl)-1H-pyrazol-3-yl]cyclohexyl]methanol] |
| 1150 | CNCCN(C)Cc1c(C)noc1[C@H]1CC[C@@]2(CC1)CC(C)(C)CO2 [compound 113] |
| 124 | CNCCN(C)Cc1c[nH]nc1C1CCC(C)(C)[C@H](COCCOC)C1 (stereo partly drawn) [compound 35, {2-[({3-[(3R)-3-[(2-methoxyethoxy)methyl]-4,4-dimethylcyclohexyl]-1H-pyrazol-4-yl}methyl)(methyl)amino]ethyl}(methyl)amine] |
| 383 | CNCCN(C)Cc1c[nH]nc1[C@@H]1CC[C@H](OCCCOC)C2(CCCC2)C1 (racemic) [compound 27, N1-((3-((7R,10S)-10-(3-methoxypropoxy)spiro[4.5]decan-7-yl)-1H-pyrazol-4-yl)methyl)-N1,N2-dimethylethane-1,2-diamine] |
| 163 | CNCCN(C)Cc1c(C)[nH]nc1[C@H]1CC[C@]2(CC1)CC(C)(C)CO2 [compound 58] |
| > 10000 | CNCCN(C)Cc1c[nH]nc1C1C[C@@H](C(=O)N(C)CC(C)C)C(C)(C)[C@H](C(=O)N(C)CC(C)C)C1 (some centres unmarked) [compound 12] |
| 741 | CNCCN(C)Cc1c[nH]nc1C1CC(COCC2CC2)CC(COCC2CC2)C1 (centres unmarked) [compound 2] |
| 8040 | CNCCN(C)Cc1nccn1[C@H]1CC[C@@]2(CC1)CC(C)(C)CO2 [compound 69] |
| 98.4 | CNCCN(C)Cc1sc(C)nc1[C@H]1CC[C@@]2(CC1)CC(C)(C)CO2 [compound 78] |
| 38.5 | CNCCN(C)Cc1c[nH]nc1[C@H]1CC[C@]2(CCN(CCC(C)C)C2=O)CC1 [compound 10] |
| 1310 | CNCCN(C)Cc1nocc1[C@H]1CC[C@@]2(CC1)CC(C)(C)CO2 [compound 117] |
| 27.7 | CNCCN(C)Cc1c[nH]nc1[C@H]1CC[C@@]2(CCCCO2)CC1 [compound 3] |
| > 10000 | CNCCN(C)Cc1nncn1[C@H]1CC[C@]2(CC1)CC(C)(C)CO2 [compound 90] |
| 405 | CNCCN(C)Cc1nn(C)cc1[C@H]1CC[C@]2(CC1)CC(C)(C)CO2 [compound 103] |
| 13.5 | CNCCN(C)Cc1c[nH]nc1C1CCC2(CCC(OC)CC2)CC1 (centres unmarked) [compound 9, N1-((3-(9-methoxyspiro[5.5]undecan-3-yl)-1H-pyrazol-4-yl)methyl)-N1,N2-dimethylethane-1,2-diamine] |
| 128 | CC[C@]12CC[C@](CC)(C[C@H](c3n[nH]cc3CN(C)CCNC)C1)O2 [compound 37, N1-((3-((1R,3r,5S)-1,5-diethyl-8-oxabicyclo[3.2.1]octan-3-yl)-1H-pyrazol-4-yl)methyl)-N1,N2-dimethylethane-1,2-diamine] |

| IC50 [nM] | SMILES |
| --- | --- |
| 42.7 | CCOCC1(COCC)CCC(c2nn(C)cc2CN(C)CCNC)CC1 [compound 122] |
| 16.7 | CCOCC1(COCC)CCC(c2n[nH]cc2CN(C)CCN)CC1 [compound 123] |
| 12.8 | CN(CCN)Cc1c[nH]nc1[C@H]1CC[C@]2(CC1)CC(C)(C)CO2 [compound 106] |
| 32 | CNCCN(C)Cc1c[nH]nc1C1CCC(COCC(C)C)(COCC(C)C)CC1 [compound 6] |
| 89.3 | CNCCN(C)Cc1scnc1[C@H]1CC[C@]2(CC1)CC(C)(C)CO2 [compound 84] |
| 444 | CNCCN(C)Cc1nn(C)nc1C1CCC2(CC1)CC(C)(C)CO2 (centres unmarked) [compound 86] |
| 33.1 | CNCCN(C)Cc1c[nH]nc1[C@H]1CC[C@]2(CCCOC2)CC1 [compound 4, N1-((3-((6s,9s)-2-oxaspiro[5.5]undecan-9-yl)-1H-pyrazol-4-yl)methyl)-N1,N2-dimethylethane-1,2-diamine] |
| 62.7 | CCC1(CC)CC2(CCC(c3n[nH]cc3CN(C)CCNC)CC2)N(C)C1=O (centres unmarked) [compound 22, 3,3-diethyl-1-methyl-8-(4-((methyl(2-(methylamino)ethyl)amino)methyl)-1H-pyrazol-3-yl)-1-azaspiro[4.5]decan-2-one] |
| 208 | CNCCN(C)Cc1nn(C)nc1[C@H]1CC[C@@]2(CC1)CC(C)(C)CO2 [compound 64] |
| 155 | Cc1[nH]nc([C@H]2CC[C@@]3(CC2)CC(C)(C)CO3)c1CN(C)CCN [compound 51, N1-((3-((5s,8s)-3,3-dimethyl-1-oxaspiro[4.5]decan-8-yl)-5-methyl-1H-pyrazol-4-yl)methyl)-N1-methylethane-1,2-diamine] |
| 3530 | CNCCN(C)Cc1nocc1[C@H]1CC[C@]2(CC1)CC(C)(C)CO2 [compound 118] |
| 14.9 | CCCOCC1(COCCC)CCC(c2n[nH]cc2CN(C)CCNC)CC1 [compound 36, N^1-((3-(4,4-bis(propoxymethyl)cyclohexyl)-1H-pyrazol-4-yl)methyl)-N^1,N^2-dimethylethane-1,2-diamine] |
| 428 | CNCCN(C)Cc1nn[nH]c1[C@H]1CC[C@]2(CC1)CC(C)(C)CO2 [compound 89] |
| 389 | CNCCN(C)Cc1sc(C)nc1[C@H]1CC[C@]2(CC1)CC(C)(C)CO2 [compound 100] |
| 132 | CC[C@]12CC[C@](CC)(C[C@@H](c3n[nH]cc3CN(C)CCNC)C1)O2 [compound 38, N1-((3-((1R,3s,5S)-1,5-diethyl-8-oxabicyclo[3.2.1]octan-3-yl)-1H-pyrazol-4-yl)methyl)-N1,N2-dimethylethane-1,2-diamine] |
| 181 | CNCCN(C)Cc1cncn1[C@H]1CC[C@@]2(CC1)CC(C)(C)CO2 [compound 76] |
| 51.1 | CNCCN(C)Cc1nn[nH]c1[C@H]1CC[C@@]2(CC1)CC(C)(C)CO2 [compound 67] |
| 1910 | CNCCNCc1c[nH]nc1[C@H]1CC[C@]2(CC1)CC(C)(C)CO2 [compound 29, N1-((3-((5r,8r)-3,3-dimethyl-1-oxaspiro[4.5]decan-8-yl)-1H-pyrazol-4-yl)methyl)-N2-methylethane-1,2-diamine] |
| 58.1 | CCOCC1(COCC)CCC(c2nn(C)cc2CN(C)CCN)CC1 [compound 124] |

| SMILES | IC50 [nM] |
| --- | --- |
| CN(CCN)Cc1c[nH]nc1[C@H]1CC[C@@]2(CC1)CC(C)(C)CO2 [compound 105] | 18.5 |
| CNCCN(C)Cc1c[nH]nc1C1CCC(C)(C)[C@H](OCC(C)C)C1 (stereo partly drawn) [compound 20, ({3-[(3R)-4,4-dimethyl-3-(2-methylpropoxy)cyclohexyl]-1H-pyrazol-4-yl}methyl)(methyl)[2-(methylamino)ethyl]amine] | 74.8 |
| CCC1CC(c2n[nH]cc2CN(C)CCNC)CC(C(=O)NCCOC)C1(C)C (centres unmarked) [compound 21, 3-ethyl-N-(2-methoxyethyl)-2,2-dimethyl-5-[4-([methyl[2-(methylamino)ethyl]amino]methyl)-1H-pyrazol-3-yl]cyclohexane-1-carboxamide dihydrochloride] | 789 |
